Laboratory results reported in the CATMoS acute toxicity set (Mansouri et al. 2021).

Test: GHS categories as the set defines them, by LD50: 1 up to 5, 2 up to 50, 3 up to 300, 4 up to 2000, 5 above 2000 mg/kg
Settings: rat; in vivo; po

| Compound | GHS category |
| --- | --- |
| CC(C)(c1ccc(OCCO)cc1)c1ccc(OCCO)cc1 | 5 |
| Nc1ccc([N+](=O)[O-])cc1O | 5 |
| CCCCCCCCCCCCCCCCCCCCO | 5 |
| O=S(=O)(O)c1cc(O)c2c(N=Nc3ccc(Nc4ccccc4)c4c(S(=O)(=O)O)cccc34)cc(S(=O)(=O)O)cc2c1 | 5 |
| COc1ccc2c(c1)CCN(c1ccccc1)C2c1cccc(C(F)(F)F)c1 (configuration not stated) | 4 |
| CC(C)CC(=O)OC1CC(C)CCC1C(C)C (configuration not stated) | 5 |
| CCCc1c(Cc2ccc(-c3ccccc3C(N)=O)cc2)c(=O)nc2[nH]ncn12 | 4 |
| CS(=O)(=O)c1cc(C(F)(F)F)ccc1C(=O)c1cnoc1C1CC1 | 5 |
| N#CC(C(=O)OCC(COC(=O)C(C#N)=C(c1ccccc1)c1ccccc1)(COC(=O)C(C#N)=C(c1ccccc1)c1ccccc1)COC(=O)C(C#N)=C(c1ccccc1)c1ccccc1)=C(c1ccccc1)c1ccccc1 | 5 |
| N#Cc1ccccc1-c1ccc(CBr)cc1 | 5 |
| CCOC(=O)C1N=C(c2ccccc2F)c2cc(Cl)ccc2NC1=O (configuration not stated) | 5 |
| CC[C@H](C)[C@@H]1NC(=O)[C@H](Cc2ccc(O)cc2)NC(=O)[C@@H](N)CSSC[C@@H](C(=O)N2CCC[C@H]2C(=O)N[C@@H](CC(C)C)C(=O)NCC(N)=O)NC(=O)[C@H](CC(N)=O)NC(=O)[C@H](CCC(N)=O)NC1=O | 2 |
| C=CC(=C)C | 5 |
| CC(C)=CCC(C#N)(CCN(C)C)c1cccc2ccccc12 (configuration not stated) | 4 |
| CC(C)C1=CC23CCC4C(C)(C(=O)N(C)C)CCCC4(C)C2CC1C1C(=O)OC(=O)C13 (configuration not stated) | 5 |
| COc1cc(NC(=O)c2cc3ccccc3cc2O)c(OC)cc1Cl | 5 |
| CCC(C)C(C#N)(CCN(CC=C(C)C)CC=C(C)C)c1cccc2ccccc12 (configuration not stated) | 4 |
| C[C@@H]1CCO[C@@](Cn2cncn2)(c2cc3ccccc3o2)O1 | 4 |
| CN(C)c1ccc(NC(=O)CCCSc2nnnn2C)cc1 | 4 |
| O=C(O)CNC(c1ccccc1)c1ccccc1 | 4 |
| CC1=C(/C=C/C(C)=C/C=C/C(C)=C\C(=O)O)C(C)(C)CCC1 | 5 |
| Nc1nc(N)nc(NC(=O)NC(=O)c2ccc(Cl)cc2)n1 | 5 |
| CCCC(=O)c1ccc2c(c1)OC(C)(C)C(=O)N2 | 5 |

| Compound | GHS category |
| --- | --- |
| COc1ccc(C=CC(C)=O)cc1 | 5 |
| O=[N+]([O-])c1c(Cl)cccc1-c1c[nH]cc1Cl | 5 |
| CCC1(CO)COC1 | 5 |
| NCCCC[C@H](N[C@@H](CCc1ccccc1)C(=O)O)C(=O)N1CCC[C@H]1C(=O)O | 5 |
| CCCCCCCCCCCCCCCCCCCCCCc1ccccc1 | 5 |
| CC(SC(=O)c1cccs1)C(=O)NCC(=O)O (configuration not stated) | 5 |
| ClC1=C(Cl)C2(Cl)C3COCC3C1(Cl)C2(Cl)Cl (configuration not stated) | 5 |
| CCC1(c2ccc(O)cc2)NC(=O)NC1=O (configuration not stated) | 5 |
| CC(C)(Oc1ccc(Cl)cc1)C(=O)OC(COC(=O)c1cccnc1)COC(=O)c1cccnc1 | 5 |
| CC(C)C(=O)OOC(C)(C)C | 5 |
| O=C1OCCC1O (configuration not stated) | 5 |
| Cc1nc(N2CCOCC2)sc1C(=O)Nc1ccccc1 | 4 |
| O=S1OCC(CCl)O1 (configuration not stated) | 2 |
| CC1=C(C(=O)O)N2C(=O)[C@@H](NC(=O)[C@H](N)c3ccc(O)cc3)[C@H]2SC1 | 5 |
| CCn1cc(C(=O)O)c(=O)c2cc(F)c(N3CCNCC3)nc21 | 5 |
| CCOP(=S)(OCC)N(SN(C)C(=O)ON=C(C)SC)C1CCCCC1 | 3 |
| C=CC(C)CCC=C(C)C (configuration not stated) | 5 |
| Cc1c(C2=C(O)CC(C)(C)CC2=O)c2c(n1-c1ccccc1)CC(C)(C)CC2=O | 5 |
| CCSc1nc(N)c2c(C)coc2n1 | 5 |
| CN1C(C(=O)Nc2ccccn2)=C(OC(=O)C(C)(C)C)c2sccc2S1(=O)=O | 2 |
| CC(=O)CCC=C(C)CCC=C(C)C | 5 |
| O=C(O)c1ccc(OCCn2ccnc2)cc1 | 4 |
| CC(C)C[C@H](N)C(=O)O | 5 |

| Compound | GHS category |
| --- | --- |
| Cc1[nH]n(-c2ccccc2)c(=O)c1N=Nc1ccc(-c2ccc(N=Nc3c(C)[nH]n(-c4ccccc4)c3=O)c(Cl)c2)cc1Cl | 5 |
| CNC(=C[N+](=O)[O-])NCCSCc1ccc(CN(C)C)o1 | 5 |
| CCOC(=O)CC(CC(C)=O)C(=O)OCC (configuration not stated) | 5 |
| CCCCC(CC)C1NC(=O)N(SC(Cl)(Cl)Cl)C1=O (configuration not stated) | 4 |
| COc1ccc2c(c1)CCN(c1ccccc1)C2c1ccccc1Br (configuration not stated) | 4 |
| CC1CC(OC(=O)COc2ccc(I)cc2)CC(C)(C)C1 (configuration not stated) | 5 |
| CCN(CC)c1ccc(N)cc1 | 3 |
| Cc1cc(Cl)ccc1OC(C)C(=O)Nc1ccccc1 (configuration not stated) | 5 |
| COc1cc(C(=O)OCc2cccc(COC(=O)c3cc(OC)c(OC)c(OC)c3)n2)cc(OC)c1OC | 5 |
| CO[C@@]1(NC(=O)CSC(F)F)C(=O)N2C(C(=O)O)=C(CSc3nnnn3CCO)CO[C@@H]21 | 5 |
| Cc1cc2c(cc1S(N)(=O)=O)S(=O)(=O)CCC2 | 5 |
| CNC(=O)c1c(I)c(NC(=O)CCCCC(=O)Nc2c(I)c(C(=O)O)c(I)c(C(=O)NC)c2I)c(I)c(C(=O)O)c1I | 5 |
| CCCCCCC(=O)OCC(CC)(COC(=O)CCCCCC)COC(=O)CCCCCC | 5 |
| CC1OC(OC2C(OC(=O)C=Cc3ccc(O)c(O)c3)C(CO)OC3OCC(c4ccc(O)c(O)c4)OC32)C(O)C(O)C1O (configuration not stated) | 5 |
| N#CCC(=O)OCC(COC(=O)CC#N)(COC(=O)CC#N)COC(=O)CC#N | 5 |
| Cc1ccc(N=Nc2c(O)c(C(=O)O)cc3ccccc23)c(S(=O)(=O)O)c1 | 5 |
| COP(=S)(OC)Oc1ccc(Cl)cc1C#N | 4 |
| CC1(C)S[C@@H]2[C@H](NC(=O)[C@H](NC(=O)N3CCN(S(C)(=O)=O)C3=O)c3ccccc3)C(=O)N2[C@H]1C(=O)O | 5 |
| CCCc1c(Cc2ccc(-c3oc(Br)cc3-c3nn[nH]n3)cc2)c(=O)nc2nc[nH]n12 | 4 |
| CCC(C)(C)c1ccccc1 | 5 |
| COc1ccccc1OCCNCC(O)COc1cccc2[nH]c3ccccc3c12 (configuration not stated) | 5 |
| CCO[Si](CN1CCOCC1)(OCC)OCC | 5 |
| Cc1ccc(C2OC[C@@H]3OC(c4ccc(C)c(C)c4)O[C@H]([C@H](O)CO)[C@@H]3O2)cc1C (some centres not stated) | 5 |

| Compound | GHS category |
| --- | --- |
| CC=CC=CCOC(=O)CCC | 5 |
| CO/N=C(/C(=O)N[C@@H]1C(=O)N2C(C(=O)O)=C(COC(C)=O)CS[C@H]12)c1csc(N)n1 | 5 |
| CCCS(=O)(=O)Nc1ccc(F)c(C(=O)c2cn(C(=O)c3c(Cl)cccc3Cl)c3ncc(Br)cc23)c1F | 5 |
| NC(=O)NC1CCC(=O)c2sccc21 (configuration not stated) | 5 |
| Oc1ccc(C(O)CNCCCCCCNCC(O)c2ccc(O)c(O)c2)cc1O (configuration not stated) | 5 |
| CC(Br)(CBr)COc1c(Br)cc(C(C)(C)c2cc(Br)c(OCC(C)(Br)CBr)c(Br)c2)cc1Br (configuration not stated) | 5 |
| CCCCCCCCCCCCCCCCCCCCCC(=O)O | 5 |
| Cl[Si](Cl)(C1CCCC1)C1CCCC1 | 5 |
| CC1CC(OC(=O)COc2ccc(F)cc2)CC(C)(C)C1 (configuration not stated) | 5 |
| CCCS(=O)(=O)Nc1ccc(F)c(C(=O)c2cn(C(=O)c3c(Cl)cccc3Cl)c3ncc(-c4ccc(Cl)cc4)cc23)c1F | 5 |
| OCC(O)C1OC(c2ccco2)OC(CO)C1O (configuration not stated) | 5 |
| CC(C)C(=O)OCC=Cc1ccccc1 | 5 |
| CC1CC(C)C(C)CC1C (configuration not stated) | 5 |
| CCCCOC(=O)C1C(C(=O)OCCCC)C2(Cl)C(Cl)=C(Cl)C1(Cl)C2(Cl)Cl (configuration not stated) | 5 |
| CCC(Oc1ccc(C(C)(C)CC)cc1C(C)(C)CC)C(=O)O (configuration not stated) | 5 |
| O=S(=O)(O)CCO | 5 |
| CC(C)(C)c1ccc(OC(=O)C2CCC(CN=C(N)N)CC2)cc1 (configuration not stated) | 2 |
| CN1OCCC(=Cc2cc(C(C)(C)C)c(O)c(C(C)(C)C)c2)C1=O | 4 |
| Oc1ccc(OCc2ccccc2)cc1 | 5 |
| O=S(=O)(O)CC(O)CNC1CCCCC1 (configuration not stated) | 5 |
| CCCCCCCCCCCC(=O)OCC(C)O (configuration not stated) | 5 |
| Cc1ccc(NC(=O)c2cc(C)[nH]n2)cc1 | 5 |
| O=C1c2c(Cl)c(Cl)c(Cl)c(Cl)c2C(=O)C1c1ccc2cccc(N3C(=O)c4c(Cl)c(Cl)c(Cl)c(Cl)c4C3=O)c2n1 | 5 |

| Compound | GHS category |
| --- | --- |
| CC(C)=CCCC(C)=C1CC=C(C)CC1 | 5 |
| CC(C)(C)C(=O)OCOC(=O)[C@@H]1N2C(=O)[C@@H](NC(=O)[C@H](N)c3ccccc3)[C@H]2SC1(C)C | 5 |
| CCn1ccc(=O)n2nc(-c3cccs3)cc12 | 4 |
| CC(=O)c1ccc2c(c1)OCC(=O)N2C | 5 |
| O=CC(O)C(O)C(O)C(O)COC1OC(CO)C(O)C(O)C1O (configuration not stated) | 4 |
| O=C(Nc1ccc(Cc2ccc(NC(=O)NC3CCCCC3)cc2)cc1)NC1CCCCC1 | 5 |
| O=c1c2cc(Oc3ccc(Cl)cc3)ccc2nnn1Cc1cccnc1 | 5 |
| CC1(C)CC2(CC(C)(C)N1)OC1(CCCCCCCCCCC1)NC2=O | 5 |
| COc1ccccc1N=Nc1c(O)ccc2ccccc12 | 5 |
| C[C@H]1CO[C@@](Cn2cncn2)(c2cc3ccccc3o2)O1 | 4 |
| CN1C2CCC1CC(OS(C)(=O)=O)C2 (configuration not stated) | 4 |
| C=CCc1cc(C(C)(C)c2ccc(O)c(CC=C)c2)ccc1O | 5 |
| Nc1c(Br)cc([N+](=O)[O-])cc1Br | 4 |
| CC(C)NC(=O)N1CCc2nc(N=C(N)N)sc2C1 | 4 |
| CC(C)(C)c1cc(CCC(=O)OCC(COC(=O)CCc2cc(C(C)(C)C)c(O)c(C(C)(C)C)c2)(COC(=O)CCc2cc(C(C)(C)C)c(O)c(C(C)(C)C)c2)COC(=O)CCc2cc(C(C)(C)C)c(O)c(C(C)(C)C)c2)cc(C(C)(C)C)c1O | 5 |
| CCOC(=O)c1ccccc1OC(N)=O | 5 |
| CC(CC=O)c1ccccc1 (configuration not stated) | 5 |
| C[C@]12COC(=O)C[C@@H]1CC[C@@H]1[C@@H]2CC[C@@]2(C)[C@H]1CC[C@]2(C)O | 5 |
| O=C(c1ccc(OC2CCOC2)cc1)c1cc(I)ccc1Cl (configuration not stated) | 4 |
| CCC(=O)CCC1C(C)=CCCC1(C)C (configuration not stated) | 5 |
